Laboratory results from patent US20240115549A1, “TREATMENT OF MENTAL DISORDERS” (GH Research Ireland Limited, priority 2022, published 2024).
“And” between values parts separate entries of the source, which are not always exact repeats. Equal entries are not always repeated. “Also recorded” adds a separate entry of the source.

System: patients with postpartum depression (PPD)
Test: Clinical trial of inhaled 5-MeO-DMT in patients with postpartum depression
Type: in vivo, human
Conditions: individual PPD patient
Protocol: The single-arm, open-label clinical trial will involve 15 adult female patients with clinically diagnosed postpartum depression (PPD).
The second dose (12 mg) will only be administered if: • a. A peak experience (total score of 275) has not been achieved following the 6 mg dose, and • b. The 6 mg dose was safe and well-tolerated according to the investigator, • c. Any psychoactive effects (PsE) of the prior dose have subsided, and • d. Pre-dose vital parameters and forced expiratory volume in one second (FEV1) are in normal range, or if outside of the normal range, are not clinically significant according to the investigator. • 3. Similarly, a third dose (18 mg) will only be administered if: • a. A peak experience (total score of 275) has not been achieved following the 12 mg dose, and • b. The 12 mg dose was safe and well-tolerated according to the investigator, and • c. Any PsE of the prior dose have subsided, and • d. Pre-dose vital parameters and forced expiratory volume in one second (FEV1) are in normal range, or if outside of the normal range, are not clinically significant according to the investigator.
The patients will be assessed for a peak psychedelic experience (based on a patient-scored visual analogue scale, the PE scale), sedation, and other endpoints after dosing. Follow-up visits are planned for Day 1, and Day 7 after the dosing day.
The following criteria must be met by all patients considered for clinical trial participation: • 1. Is female and in the age range between 18 and 45 years (inclusive) at screening. • 2. Has a body mass index (BMI) in the range of 18.5 and 35 kg/m^2 (inclusive) at screening. • 3. Meets the trial criteria for PPD as assessed by a trial psychiatrist or registered psychologist: • a. Diagnosis of Major Depressive Disorder without psychotic features, confirmed by the Mini-International Neuropsychiatric Interview (MINI), with peri-partum onset that began no earlier than gestation and no later than the first 4 weeks postpartum. • b. Has a Montgomery-Åsberg Depression Rating Scale (MADRS) total score of equal to or greater than 28 at screening and pre-dose on Day 0. • 6. […] Patients must have a negative pregnancy test at screening and on the pre-test day (Day −1). • 5. Is willing to delay start of other antidepressant or anxiety medication until after the end of the trial at Day 7 and agrees to keep any psychotherapy unchanged during the trial.
A potential patient who meets any of the following key exclusion criteria will be excluded from participation in this trial: • 1. Has, based on history, psychiatric assessment, and evaluation of the MINI, a current or prior diagnosis of bipolar disorder, a manic or hypomanic episode, a psychotic disorder, Major Depressive Disorder (MDD) or other mood disorder with psychotic features, obsessive compulsive disorder, post-traumatic stress disorder (PTSD), autism spectrum disorder, borderline personality disorder, schizophrenia, delusional disorder, paranoid personality disorder, schizoaffective disorder, clinically significant intellectual disability, or any other psychiatric comorbidity that renders the patient unsuitable for the trial according to the investigator's judgment. • 2. Has one or more first or second degree relatives with a current or previously diagnosed bipolar disorder, psychotic disorder or other mood disorder (including MDD) with psychotic features. • 3. Is in the judgement of a trial psychiatrist or registered psychologist, at significant risk for suicide based on history, psychiatric assessment, and evaluation of suicidal ideation and suicidal behaviour based on the Columbia-Suicide Severity Rating Scale (C-SSRS). • 4. Has taken anti-depressive medication within 14 days or 5 half-lives (whichever is longer) prior to dosing (exception: within the last 5 weeks in the case of fluoxetine). • 5.

COc1ccc2[nH]cc(CCN(C)C)c2c1 [5-MeO-DMT]
Reported adverse events: mild, short-lasting and resolved spontaneously | Standard criteria for MADRS response (>=50% improvement) and remission (total <=10): fulfilled | Tolerability of inhalation procedure / regimen (6 mg then 12 mg): well tolerated with no inhalation-related adverse events; also recorded: well tolerated | MADRS apparent sadness improvement (2 h): 5 and 4 | MADRS apparent sadness score (2 h): 0 | MADRS concentration difficulties improvement (2 h): 0 and 4 | MADRS concentration difficulties score (2 h): 0 | MADRS inability to feel improvement (2 h): 3 and 4 | MADRS inability to feel score (2 h): 0 | MADRS inner tension improvement (2 h): 5 and 4 | MADRS inner tension score (2 h): 0 | MADRS lassitude improvement (2 h): 3 and 4 | MADRS lassitude score (2 h): 0 | MADRS pessimistic thoughts improvement (2 h): 4 | MADRS pessimistic thoughts score (2 h): 0 | MADRS reduced appetite improvement (2 h): 0 and 6 | MADRS reduced appetite score (2 h): 0 | MADRS reduced sleep improvement (2 h): 0 | MADRS reported sadness improvement (2 h): 4 and 5 | MADRS reported sadness score (2 h): 0 | MADRS suicidal thoughts improvement (2 h): 0 and 1 | MADRS suicidal thoughts score (2 h): 0 | MADRS reduced sleep score (2 h (baseline carried forward)): 5 | BPRS anxiety improvement (Day 1): 6 and 5 | BPRS anxiety score (Day 1): 1 | BPRS blunted affect improvement (Day 1): 0 and 4 | BPRS blunted affect score (Day 1): 1 | BPRS conceptual disorganization improvement (Day 1): 0 and 3 | BPRS conceptual disorganization score (Day 1): 1 | BPRS depressive mood improvement (Day 1): 5 and 4 | BPRS depressive mood score (Day 1): 1 | BPRS disorientation improvement (Day 1): 0 | BPRS disorientation score (Day 1): 1 | BPRS emotional withdrawal improvement (Day 1): 4 and 5 | BPRS emotional withdrawal score (Day 1): 1 | BPRS excitement improvement (Day 1): 1 and 0 | BPRS excitement score (Day 1): 1 | BPRS grandiosity improvement (Day 1): 0 | BPRS grandiosity score (Day 1): 1 | BPRS guilt feelings improvement (Day 1): 5 | BPRS guilt feelings score (Day 1): 1 | BPRS hallucinatory behaviour improvement (Day 1): 0 | BPRS hallucinatory behaviour score (Day 1): 1 | BPRS hostility improvement (Day 1): 0 and 3 | BPRS hostility score (Day 1): 1 | BPRS mannerisms and posturing improvement (Day 1): 0 | BPRS mannerisms and posturing score (Day 1): 1 | BPRS motor retardation improvement (Day 1): 0 and 2 | BPRS motor retardation score (Day 1): 1 | BPRS somatic concern improvement (Day 1): 5 and 0 | BPRS somatic concern score (Day 1): 1 | BPRS suspiciousness improvement (Day 1): 0 | BPRS suspiciousness score (Day 1): 1 | BPRS tension improvement (Day 1): 5 and 3 | BPRS tension score (Day 1): 1 | BPRS uncooperativeness improvement (Day 1): 0 | BPRS uncooperativeness score (Day 1): 1 | BPRS unusual thought content improvement (Day 1): 0 | BPRS unusual thought content score (Day 1): 1 | MADRS apparent sadness improvement (Day 1): 5 and 4 | MADRS apparent sadness score (Day 1): 0 | MADRS concentration difficulties improvement (Day 1): 0 and 4 | MADRS concentration difficulties score (Day 1): 0 | MADRS inability to feel improvement (Day 1): 3 and 4 | MADRS inability to feel score (Day 1): 0 | MADRS inner tension improvement (Day 1): 5 and 4 | MADRS inner tension score (Day 1): 0 | MADRS lassitude improvement (Day 1): 3 and 4 | MADRS lassitude score (Day 1): 0 | MADRS pessimistic thoughts improvement (Day 1): 4 | MADRS pessimistic thoughts score (Day 1): 0 | MADRS reduced appetite improvement (Day 1): 0 and 6 | MADRS reduced appetite score (Day 1): 0 | MADRS reduced sleep improvement (Day 1): 5 | MADRS reduced sleep score (Day 1): 0 | MADRS reported sadness improvement (Day 1): 4 and 5 | MADRS reported sadness score (Day 1): 0 | MADRS suicidal thoughts improvement (Day 1): 0 and 1 | MADRS suicidal thoughts score (Day 1): 0 | BIMF TOTAL score (Day 7): 105 and 104 | BIMF item 1 (I am a good mother) score (Day 7): 6 and 5 | BIMF item 2 (I feel rested) score (Day 7): 2 and 4 | BIMF item 3 (comfortable with the way I've chosen to feed my baby) score (Day 7): 6 | BIMF item 4 (My baby and I understand each other) score (Day 7): 5 and 6 | BIMF item 5 (able to relax and enjoy time with my baby) score (Day 7): 6 | BIMF item 6 (people I can trust to care for my baby when I need a break) score (Day 7): 6 and 5 | BIMF item 8 (getting enough adult interaction) score (Day 7): 6 and 4 | BIMF item 9 (getting enough encouragement from other people) score (Day 7): 6 and 5 | BIMF item 10 (I trust my own feelings (instincts)) score (Day 7): 6 | BIMF item 11 (a little time each week to do something for myself) score (Day 7): 6 and 4 | BIMF item 12 (taking good care of my baby's physical needs) score (Day 7): 6 | BIMF item 13 (taking good care of my physical needs) score (Day 7): 5 | BIMF item 14 (good decisions about my baby's health and well being) score (Day 7): 6 | BIMF item 15 (My baby and I are getting into a routine) score (Day 7): 6 and 5 | BIMF item 16 (I worry about how other people judge me) score (Day 7): 5 | BIMF item 17 (able to take care of my baby and my other responsibilities) score (Day 7): 5 | BIMF item 18 (Anxiety or worry often interferes with my mothering ability) score (Day 7): 5 | BIMF item 19 (getting better at taking care of my baby) score (Day 7): 1 and 6 | BIMF item 20 (satisfied with the job I am doing as a new mother) score (Day 7): 5 | BIMF total score improvement, percent (Day 7): 14% and over 40% | BPRS anxiety improvement (Day 7): 6 and 5 | BPRS anxiety score (Day 7): 1 | BPRS blunted affect improvement (Day 7): 0 and 4 | BPRS blunted affect score (Day 7): 1 | BPRS conceptual disorganization improvement (Day 7): 0 and 3 | BPRS conceptual disorganization score (Day 7): 1 | BPRS depressive mood improvement (Day 7): 5 and 4 | BPRS depressive mood score (Day 7): 1 | BPRS disorientation improvement (Day 7): 0 | BPRS disorientation score (Day 7): 1 | BPRS emotional withdrawal improvement (Day 7): 4 and 5 | BPRS emotional withdrawal score (Day 7): 1 | BPRS excitement improvement (Day 7): 1 and 0 | BPRS excitement score (Day 7): 1 | BPRS grandiosity improvement (Day 7): 0 | BPRS grandiosity score (Day 7): 1 | BPRS guilt feelings improvement (Day 7): 5 | BPRS guilt feelings score (Day 7): 1 | BPRS hallucinatory behaviour improvement (Day 7): 0 | BPRS hallucinatory behaviour score (Day 7): 1 | BPRS hostility improvement (Day 7): 0 and 3 | BPRS hostility score (Day 7): 1 | BPRS mannerisms and posturing improvement (Day 7): 0 | BPRS mannerisms and posturing score (Day 7): 1 | BPRS motor retardation improvement (Day 7): 0 and 2 | BPRS motor retardation score (Day 7): 1 | BPRS somatic concern improvement (Day 7): 5 and 0 | BPRS somatic concern score (Day 7): 1 | BPRS suspiciousness improvement (Day 7): 0 | BPRS suspiciousness score (Day 7): 1 | BPRS tension improvement (Day 7): 5 and 3 | BPRS tension score (Day 7): 1 | BPRS uncooperativeness improvement (Day 7): 0 | BPRS uncooperativeness score (Day 7): 1 | BPRS unusual thought content improvement (Day 7): 0 | BPRS unusual thought content score (Day 7): 1 | MADRS apparent sadness improvement (Day 7): 5 and 4 | MADRS apparent sadness score (Day 7): 0 | MADRS concentration difficulties improvement (Day 7): 0 and 4 | MADRS concentration difficulties score (Day 7): 0 | MADRS inability to feel improvement (Day 7): 3 and 4 | MADRS inability to feel score (Day 7): 0 | MADRS inner tension improvement (Day 7): 4 | MADRS inner tension score (Day 7): 1 and 0 | MADRS lassitude improvement (Day 7): 3 and 4 | MADRS lassitude score (Day 7): 0 | MADRS pessimistic thoughts improvement (Day 7): 4 | MADRS pessimistic thoughts score (Day 7): 0 | MADRS reduced appetite improvement (Day 7): 0 and 6 | MADRS reduced appetite score (Day 7): 0 | MADRS reduced sleep improvement (Day 7): 5 | MADRS reduced sleep score (Day 7): 0 | MADRS reported sadness improvement (Day 7): 4 and 5 | MADRS reported sadness score (Day 7): 0 | MADRS suicidal thoughts improvement (Day 7): 0 and 1 | MADRS suicidal thoughts score (Day 7): 0 | Total MADRS improvement (Day 7): 41 | Total MADRS score (Day 7): 0 | BIMF TOTAL Δ (Day 7 vs Day 0): 13 and 45 | BIMF domain Adjustment Δ (Day 7 vs Day 0): 1 and 9 | BIMF domain Infant Care Δ (Day 7 vs Day 0): 0 | BIMF domain Management Δ (Day 7 vs Day 0): 5 and 13 | BIMF domain Mother-Child Interaction Δ (Day 7 vs Day 0): 2 and 7 | BIMF domain Psychological Well-being Δ (Day 7 vs Day 0): 9 and 27 | BIMF domain Self-Care Δ (Day 7 vs Day 0): 4 and 10 | BIMF domain Social Support % Improvement (Day 7 vs Day 0): approx. 27% and 27% | BIMF domain Social Support Δ (Day 7 vs Day 0): 1 and 3 | BIMF item 1 (I am a good mother) Δ (Day 7 vs Day 0): 0 and 1 | BIMF item 2 (I feel rested) Δ (Day 7 vs Day 0): 2 and 4 | BIMF item 3 (comfortable with the way I've chosen to feed my baby) Δ (Day 7 vs Day 0): 0 and 1 | BIMF item 4 (My baby and I understand each other) Δ (Day 7 vs Day 0): 0 and 1 | BIMF item 5 (able to relax and enjoy time with my baby) Δ (Day 7 vs Day 0): 1 and 5 | BIMF item 6 (people I can trust to care for my baby when I need a break) Δ (Day 7 vs Day 0): 0 | BIMF item 8 (getting enough adult interaction) Δ (Day 7 vs Day 0): 0 and 1 | BIMF item 9 (getting enough encouragement from other people) Δ (Day 7 vs Day 0): 1 and 2 | BIMF item 10 (I trust my own feelings (instincts)) Δ (Day 7 vs Day 0): 1 and 2 | BIMF item 11 (a little time each week to do something for myself) Δ (Day 7 vs Day 0): 1 and 2 | BIMF item 12 (taking good care of my baby's physical needs) Δ (Day 7 vs Day 0): 0 | BIMF item 13 (taking good care of my physical needs) Δ (Day 7 vs Day 0): 1 and 4 | BIMF item 14 (good decisions about my baby's health and well being) Δ (Day 7 vs Day 0): 0 | BIMF item 15 (My baby and I are getting into a routine) Δ (Day 7 vs Day 0): 1 | BIMF item 16 (I worry about how other people judge me) Δ (Day 7 vs Day 0): 2 and 4 | BIMF item 17 (able to take care of my baby and my other responsibilities) Δ (Day 7 vs Day 0): 0 and 3 | BIMF item 18 (Anxiety or worry often interferes with my mothering ability) Δ (Day 7 vs Day 0): 3 and 5 | BIMF item 19 (getting better at taking care of my baby) Δ (Day 7 vs Day 0): 1 and 6 | BIMF item 20 (satisfied with the job I am doing as a new mother) Δ (Day 7 vs Day 0): −1 and 4 | BPRS anxiety improvement (discharge): 6 and 5 | BPRS anxiety score (discharge): 1 | BPRS blunted affect improvement (discharge): 0 and 4 | BPRS blunted affect score (discharge): 1 | BPRS conceptual disorganization improvement (discharge): 0 and 3 | BPRS conceptual disorganization score (discharge): 1 | BPRS depressive mood improvement (discharge): 5 and 4 | BPRS depressive mood score (discharge): 1 | BPRS disorientation improvement (discharge): 0 | BPRS disorientation score (discharge): 1 | BPRS emotional withdrawal improvement (discharge): 4 and 5 | BPRS emotional withdrawal score (discharge): 1 | BPRS excitement improvement (discharge): 1 and 0 | BPRS excitement score (discharge): 1 | BPRS grandiosity improvement (discharge): 0 | BPRS grandiosity score (discharge): 1 | BPRS guilt feelings improvement (discharge): 5 | BPRS guilt feelings score (discharge): 1 | BPRS hallucinatory behaviour improvement (discharge): 0 | BPRS hallucinatory behaviour score (discharge): 1 | BPRS hostility improvement (discharge): 0 and 3 | BPRS hostility score (discharge): 1 | BPRS mannerisms and posturing improvement (discharge): 0 | BPRS mannerisms and posturing score (discharge): 1 | BPRS motor retardation improvement (discharge): 0 and 2 | BPRS motor retardation score (discharge): 1 | BPRS somatic concern improvement (discharge): 5 and 0 | BPRS somatic concern score (discharge): 1 | BPRS suspiciousness improvement (discharge): 0 | BPRS suspiciousness score (discharge): 1 | BPRS tension improvement (discharge): 3 | BPRS tension score (discharge): 1 | BPRS uncooperativeness improvement (discharge): 0 | BPRS uncooperativeness score (discharge): 1 | BPRS unusual thought content improvement (discharge): 0 | BPRS unusual thought content score (discharge): 1
